From PubChem BioAssay AID330 (DTP/NCI, 2004)
Where “and” joins values, the source holds several entries; their conditions need not be identical. Equal entries are not always repeated. Toxic doses and inconclusive results are not listed. How the source made its calls: active means survival T/C of 150% or more; inactive means T/C below 125% in these data.

Test system: P388 leukemia ip, CD2F1 mice, survival T/C
Assay: NCI In Vivo Anticancer Drug Screen. Data for tumor model P388 Leukemia (intraperitoneal) in CD2F1 (CDF1) mice
Conditions: endpoint: median survival time, higher = longer survival
In short: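 Mice carrying the transplanted tumor received test compound or vehicle. Survival was recorded in each group, and the value is the treated-group measurement divided by that of the vehicle-treated control group.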

[1] = dose: 100.0 mg/kg/injection, schedule: Q04DX003 (ip), vehicle: saline with Tween-80
[2] = dose: 200.0 mg/kg/injection, schedule: Q04DX003 (ip), vehicle: saline with Tween-80
[3] = dose: 400.0 mg/kg/injection, schedule: Q04DX003 (ip), vehicle: saline with Tween-80
[4] = dose: 100.0 mg/kg/injection, schedule: Q04DX002 (ip), vehicle: saline with Tween-80
[5] = dose: 200.0 mg/kg/injection, schedule: Q04DX002 (ip), vehicle: saline with Tween-80
[6] = dose: 400.0 mg/kg/injection, schedule: Q04DX002 (ip), vehicle: saline with Tween-80
[7] = dose: 50.0 mg/kg/injection, schedule: Q01DX009 (ip), vehicle: saline with Tween-80
[8] = dose: 100.0 mg/kg/injection, schedule: Q01DX009 (ip), vehicle: saline with Tween-80
[9] = dose: 200.0 mg/kg/injection, schedule: Q01DX009 (ip), vehicle: saline with Tween-80
[10] = dose: 50.0 mg/kg/injection, schedule: Q01DX009 (ip), vehicle: saline
[11] = dose: 100.0 mg/kg/injection, schedule: Q01DX009 (ip), vehicle: saline
[12] = dose: 60.0 mg/kg/injection, schedule: Q01DX005 (ip), vehicle: saline with Tween-80
[13] = dose: 120.0 mg/kg/injection, schedule: Q01DX005 (ip), vehicle: saline with Tween-80
[14] = dose: 50.0 mg/kg/injection, schedule: Q01DX009 (ip), vehicle: Klucel (hydroxypropylcellulose) (HPC)
[15] = dose: 100.0 mg/kg/injection, schedule: Q01DX009 (ip), vehicle: Klucel (hydroxypropylcellulose) (HPC)
[16] = dose: 200.0 mg/kg/injection, schedule: Q01DX009 (ip), vehicle: Klucel (hydroxypropylcellulose) (HPC)
[17] = dose: 50.0 mg/kg/injection, schedule: Q01DX005 (ip), vehicle: saline with Tween-80
[18] = dose: 100.0 mg/kg/injection, schedule: Q01DX005 (ip), vehicle: saline with Tween-80
[19] = dose: 50.0 mg/kg/injection, schedule: Q01DX005 (ip), vehicle: saline
[20] = dose: 50.0 mg/kg/injection, schedule: Q01DX005 (ip), vehicle: Klucel (hydroxypropylcellulose) (HPC)
[21] = dose: 100.0 mg/kg/injection, schedule: Q01DX005 (ip), vehicle: Klucel (hydroxypropylcellulose) (HPC)
[22] = dose: 25.0 mg/kg/injection, schedule: Q01DX009 (ip), vehicle: saline with Tween-80

Measured: T/C

COc1ccc(-c2sc(/N=C/c3cc(OC)c(OC)c(OC)c3)c(C#N)c2C)cc1OC
inactive: dose: 50.0 mg/kg/injection, schedule: Q04DX003 (ip), vehicle: saline with Tween-80 101 % of control | [1] 99 % of control | [2] 100 % of control | [3] 90 % of control

Cc1ccc(C)n1-c1ccsc1C(=O)NNC(=O)C(Cl)(Cl)Cl
inactive: dose: 7.5 mg/kg/injection, schedule: Q01DX005 (ip), vehicle: Klucel (hydroxypropylcellulose) (HPC) 102 % of control | dose: 15.0 mg/kg/injection, schedule: Q01DX005 (ip), vehicle: Klucel (hydroxypropylcellulose) (HPC) 101 % of control | dose: 30.0 mg/kg/injection, schedule: Q01DX005 (ip), vehicle: Klucel (hydroxypropylcellulose) (HPC) 111 % of control

C=CC(C)(CCC=C(C)C)ON(CC)CC (centres undefined)
inactive: [4] 108 % of control | [5] 113 % of control | [6] 92 % of control

CC(C)c1ccc(OS(=O)(=O)C(F)(F)C(F)(F)C(F)(F)C(F)(F)F)cc1
inactive: [7] 99 % of control | [8] 105 % of control

O=C1N(CO)C2C(N1CO)N(CO)C(=O)N2CO (centres undefined)
inactive: dose: 100.0 mg/kg/injection, schedule: Q04DX003 (ip), vehicle: saline 109 % of control | dose: 200.0 mg/kg/injection, schedule: Q04DX003 (ip), vehicle: saline 118 % of control | dose: 400.0 mg/kg/injection, schedule: Q04DX003 (ip), vehicle: saline 118 % of control

c1ccc2[s+]csc2c1
inactive: dose: 6.25 mg/kg/injection, schedule: Q01DX009 (ip), vehicle: distilled water + Tween-80 102 % of control | dose: 12.5 mg/kg/injection, schedule: Q01DX009 (ip), vehicle: distilled water + Tween-80 92 % of control | dose: 25.0 mg/kg/injection, schedule: Q01DX009 (ip), vehicle: distilled water + Tween-80 107 % of control | dose: 50.0 mg/kg/injection, schedule: Q01DX009 (ip), vehicle: distilled water + Tween-80 108 % of control | dose: 100.0 mg/kg/injection, schedule: Q01DX009 (ip), vehicle: distilled water + Tween-80 93 % of control

CC1=NN(C(=O)c2ccncc2)C(=O)C1N=Nc1ccc(C)c([N+](=O)[O-])c1 (centres undefined)
inactive: [7] 107 % of control | [8] 101 % of control | [9] 97 % of control

[Cu].c1ccc2c3[n-]c(c2c1)/N=c1\[n-]/c(c2ccccc12)=N\c1[n-]c(c2ccccc12)/N=c1\[n-]/c(c2ccccc12)=N\3
inactive: [10] 104 % of control | [11] 93 % of control

Cc1cc(N=[N+]=[N-])c2ccccc2n1
inactive: [12] 105 % of control | [13] 94 % of control

CCCCC1C(=O)N2C=C(c3ccccc3)c3ccccc3N2C1=O (centres undefined)
inactive: dose: 25.0 mg/kg/injection, schedule: Q01DX009 (ip), vehicle: Klucel (hydroxypropylcellulose) (HPC) 104 % of control | [14] 111 % of control | [15] 95 % of control | [16] 105 % of control | dose: 400.0 mg/kg/injection, schedule: Q01DX009 (ip), vehicle: Klucel (hydroxypropylcellulose) (HPC) 95 % of control

Nc1ccc2[se]nc3c2c1C(=O)c1ccccc1-3
inactive: dose: 6.25 mg/kg/injection, schedule: Q01DX005 (ip), vehicle: Klucel (hydroxypropylcellulose) (HPC) 98 % of control | dose: 12.5 mg/kg/injection, schedule: Q01DX005 (ip), vehicle: Klucel (hydroxypropylcellulose) (HPC) 98 % of control | dose: 25.0 mg/kg/injection, schedule: Q01DX005 (ip), vehicle: Klucel (hydroxypropylcellulose) (HPC) 101 % of control

Fc1ccc(-c2nc3cc(-c4ccccc4)[nH]n3c2N=Nc2ccccc2)cc1
inactive: [17] 105 % of control | [18] 103 % of control | dose: 200.0 mg/kg/injection, schedule: Q01DX005 (ip), vehicle: saline with Tween-80 108 % of control

C=C(C)c1nc(N)nc(-c2ccc(OC)cc2)n1
inactive: dose: 100.0 mg/kg/injection, schedule: Q04DX002 (ip), vehicle: Klucel (hydroxypropylcellulose) (HPC) 98 % of control | dose: 200.0 mg/kg/injection, schedule: Q04DX002 (ip), vehicle: Klucel (hydroxypropylcellulose) (HPC) 94 % of control | dose: 400.0 mg/kg/injection, schedule: Q04DX002 (ip), vehicle: Klucel (hydroxypropylcellulose) (HPC) 93 % of control

OC(c1ccncc1)(c1ccc(Cl)cc1)c1cccs1 (centres undefined)
inactive: [14] 101 % of control | [15] 98 % of control | [16] 93 % of control

NC(N)=Nc1ccc(C(=O)Oc2ccc([N+](=O)[O-])cc2)cc1
inactive: [1] 104 % of control | [2] 100 % of control | [3] 95 % of control

O=[N+]([O-])c1cccnc1Sc1nc2ccccc2[nH]1
inactive: [10] 96 % of control | [11] 101 % of control | dose: 200.0 mg/kg/injection, schedule: Q01DX009 (ip), vehicle: saline 101 % of control

CC1C2Cc3ccc(O)cc3C1(C)CCN2C (centres undefined)
inactive: [12] 92 % of control | [13] 100 % of control

[Cl][Mn][Cl].[NH-]NP(=S)(N[NH-])Oc1ccccc1.[NH-]NP(=S)(N[NH-])Oc1ccccc1
inactive: dose: 12.5 mg/kg/injection, schedule: Q01DX005 (ip), vehicle: saline 99 % of control | dose: 25.0 mg/kg/injection, schedule: Q01DX005 (ip), vehicle: saline 100 % of control | [19] 108 % of control

O=C1c2cc([N+](=O)[O-])ccc2-c2c(N=Cc3ccc4c(c3)OCO4)cccc21
inactive: [12] 90 % of control | [13] 91 % of control | dose: 240.0 mg/kg/injection, schedule: Q01DX005 (ip), vehicle: saline with Tween-80 99 % of control

CSCC(C)C(N)C(=O)O (centres undefined)
inactive: [14] 109 % of control | [15] 105 % of control | [16] 100 % of control

CC(C)C1[NH][Sn]2([NH]C(C(C)C)C(=O)[O]2)[O]C1=O (centres undefined)
inactive: [20] 97 % of control | [21] 106 % of control

CC(C)(O)Cc1ccc(Cl)cc1
inactive: [22] 99 % of control | [7] 105 % of control | [8] 108 % of control | [9] 105 % of control

c1cnc2c(c1)ccc1ncccc12
inactive: [20] 104 % of control | [21] 95 % of control | dose: 200.0 mg/kg/injection, schedule: Q01DX005 (ip), vehicle: Klucel (hydroxypropylcellulose) (HPC) 97 % of control

CC1=NC(C)(Cc2ccccc2)SC1c1ccccc1 (centres undefined)
inactive: [17] 110 % of control | [19] 100 % of control | [18] 96 % of control | dose: 100.0 mg/kg/injection, schedule: Q01DX005 (ip), vehicle: saline 106 % of control | dose: 200.0 mg/kg/injection, schedule: Q01DX005 (ip), vehicle: saline 101 % of control

CC1=CCCC1C1C=CCC1 (centres undefined) (tested in a mixture with another compound)
inactive: [22] 102 % of control | [7] 103 % of control and 105 % of control | [8] 116 % of control

Cc1ccc2nc(N/N=C/c3cccs3)sc2c1
inactive: [14] 100 % of control | [15] 101 % of control | [16] 94 % of control

COc1cccc(-c2nnc(-c3nc[nH]c3C)[nH]c2=O)c1
inactive: [4] 93 % of control | [5] 91 % of control | [6] 91 % of control
